Test results from patent US10457659B2, “Compositions and methods for increasing proliferation of adult salivary stem cells” (The Board of Trustees of the Leland Stanford Junior …, priority 2011, dated 2019).
Entries after “also recorded” stand apart in the source; their conditions may differ.

Key:
[1] = target: T1, human ALDH3 recombinant enzyme (Homo sapiens, UniProt P30838); test: Catalytic activity of recombinant ALDH3 enzyme (isozyme selectivity, FIG. 3A); assay type: biochemical; settings: n=3, p<0.01
T1 sequence (P30838 1-453): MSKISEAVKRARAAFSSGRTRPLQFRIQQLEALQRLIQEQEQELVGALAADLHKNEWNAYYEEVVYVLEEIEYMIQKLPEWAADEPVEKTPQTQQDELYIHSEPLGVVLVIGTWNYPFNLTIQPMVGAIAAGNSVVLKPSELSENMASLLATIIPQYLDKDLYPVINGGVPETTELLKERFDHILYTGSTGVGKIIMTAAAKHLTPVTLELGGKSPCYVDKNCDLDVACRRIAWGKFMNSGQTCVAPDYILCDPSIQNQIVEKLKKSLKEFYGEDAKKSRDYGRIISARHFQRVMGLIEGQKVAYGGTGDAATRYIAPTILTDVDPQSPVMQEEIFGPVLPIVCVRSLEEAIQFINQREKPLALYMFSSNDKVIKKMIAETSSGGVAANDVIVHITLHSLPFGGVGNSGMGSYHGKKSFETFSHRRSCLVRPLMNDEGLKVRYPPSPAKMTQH
Method: (§1) As an example of an assay for dehydrogenase activity, ALDH aldehyde dehydrogenase activity is assayed at 25° C. in 50 mM sodium pyrophosphate HCl buffer, pH 9.0, 100 mM sodium phosphate buffer, pH 7.4, or 50 mM sodium phosphate buffer, pH 7.4, where the buffer includes NAD^+ (e.g., 0.8 mM NAD^+, or higher, e.g., 1 mM, 2 mM, or 5 mM NAD^+) and an aldehyde substrate such as 14 μM propionaldehyde. Reduction of NAD^+ is monitored at 340 nm using a spectrophotometer, or by fluorescence increase using a fluoromicrophotometer Enzymatic activity can be assayed using a standard spectrophotometric method, e.g., by measuring a reductive reaction of the oxidized form of nicotinamide adenine dinucleotide (NAD^+) to its reduced form, NADH, at 340 nm, as described in US 2005/0171043; and WO 2005/057213, and as depicted schematically in FIG. 4. In an exemplary assay, the reaction is carried out at 25° C. in […] pyrophosphate (NaPPi) buffer, pH 9.0, 2.4 mM NAD^+ and 10 mM acetaldehyde as the substrate. Enzymatic activity is measured by a reductive reaction of NAD^+ to NADH at 340 nm, as described in US 2005/0171043; and WO 2005/057213. Alternatively, the production of NADH can be coupled with another enzymatic reaction that consumes NADH and that provides for a detectable signal. […]

ALDH1 = target: T2, ALDH1 (Homo sapiens, UniProt P00352); test: Catalytic activity of ALDH1 isozyme (isozyme selectivity, FIG. 3A); assay type: biochemical
T2 sequence (P00352 1-501): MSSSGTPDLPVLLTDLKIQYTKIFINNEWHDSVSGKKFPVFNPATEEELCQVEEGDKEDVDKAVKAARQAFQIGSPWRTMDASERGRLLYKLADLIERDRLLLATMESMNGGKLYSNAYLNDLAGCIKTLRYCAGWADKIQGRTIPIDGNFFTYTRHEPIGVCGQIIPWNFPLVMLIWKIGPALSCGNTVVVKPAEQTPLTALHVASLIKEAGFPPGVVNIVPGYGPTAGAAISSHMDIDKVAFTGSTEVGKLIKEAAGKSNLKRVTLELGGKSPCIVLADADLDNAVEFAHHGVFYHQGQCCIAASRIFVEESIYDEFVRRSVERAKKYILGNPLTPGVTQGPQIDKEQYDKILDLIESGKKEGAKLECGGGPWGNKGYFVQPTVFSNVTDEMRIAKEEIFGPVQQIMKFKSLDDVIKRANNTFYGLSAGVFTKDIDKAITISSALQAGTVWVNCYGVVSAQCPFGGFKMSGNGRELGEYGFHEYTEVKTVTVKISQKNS
Method: as §1

ALDH2 = target: T3, ALDH2 (Homo sapiens, UniProt P05091); test: Catalytic activity of ALDH2 isozyme (isozyme selectivity, FIG. 3A); assay type: biochemical
T3 sequence (P05091 18-517): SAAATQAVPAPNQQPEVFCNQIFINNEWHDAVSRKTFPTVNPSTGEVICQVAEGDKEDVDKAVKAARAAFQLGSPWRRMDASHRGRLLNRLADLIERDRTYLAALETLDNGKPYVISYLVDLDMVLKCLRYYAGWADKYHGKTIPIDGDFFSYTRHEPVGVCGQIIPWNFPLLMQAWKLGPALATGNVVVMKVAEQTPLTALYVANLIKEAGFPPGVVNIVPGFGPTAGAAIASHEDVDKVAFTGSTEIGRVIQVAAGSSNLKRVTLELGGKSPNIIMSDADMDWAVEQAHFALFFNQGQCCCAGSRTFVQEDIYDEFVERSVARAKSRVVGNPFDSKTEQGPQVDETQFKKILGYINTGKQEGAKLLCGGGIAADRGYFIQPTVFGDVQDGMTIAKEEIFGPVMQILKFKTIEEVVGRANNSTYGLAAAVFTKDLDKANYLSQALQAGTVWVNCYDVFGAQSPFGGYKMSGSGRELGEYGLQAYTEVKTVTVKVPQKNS
Method: as §1

ALDH5 = test: Catalytic activity of ALDH5 isozyme (isozyme selectivity, FIG. 3A); assay type: biochemical
Method: as §1

ALDH3 = target: T4, ALDH3 (Mus musculus, UniProt P47739); test: ALDH3 enzyme activity in esophagus cell homogenate after osmotic pump infusion into mice (FIG. 3B); assay type: in vivo; settings: 34 mg/kg/day, n=5, p<0.05
T4 construct: enhanced ALDH3 enzyme activity by 29% in esophagus cell homogenate; from tissue; host or cells: esophagus cell homogenate of C57BL/6 mice
T4 sequence (P47739 1-453): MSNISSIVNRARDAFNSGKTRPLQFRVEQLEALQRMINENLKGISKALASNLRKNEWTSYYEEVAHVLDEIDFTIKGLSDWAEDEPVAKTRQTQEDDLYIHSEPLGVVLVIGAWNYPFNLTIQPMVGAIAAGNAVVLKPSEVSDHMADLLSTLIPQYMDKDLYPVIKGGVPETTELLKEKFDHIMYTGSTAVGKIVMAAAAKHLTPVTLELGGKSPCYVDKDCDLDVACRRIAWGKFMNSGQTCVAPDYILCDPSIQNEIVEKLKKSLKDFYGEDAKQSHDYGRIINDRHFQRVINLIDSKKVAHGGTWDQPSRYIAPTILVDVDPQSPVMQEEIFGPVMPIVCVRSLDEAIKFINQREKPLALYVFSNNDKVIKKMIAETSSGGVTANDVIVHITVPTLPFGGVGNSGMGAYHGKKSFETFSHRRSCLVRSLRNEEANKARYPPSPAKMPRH

c-kit+/CD90+ SMG cells = test: FACS count of c-Kit+/CD90+ submandibular gland cells after 7 days of infusion in mice (FIG. 3C); assay type: in vivo, mouse
Method: All animal procedures were approved by the Institutional Animal Care and Use Committee at Stanford University. Female C57BL/6 mice (n=10, 4-5 weeks old, Jackson Laboratory, Sacramento, Calif.) were used for ALDH3 activator study.
(§2) An ALDH3 activator (Alda89, 100 ug/ml, n=5) and Vehicle control ([…]; 50% DMSO and 50% PEG400, n=5) was injected into ALZET osmotic pumps (DURECT Corporation, Cupertino, Calif.). The osmotic pumps were implanted subcutaneously into C57BL/6 mice. The mice were euthanized after 7 days and salivary gland tissues were collected for analysis of salsiphere formation and BrdU incorporation as described above. In addition, FACs analysis for anti-mouse c-Kit and anti-mouse CD90 (BD Biosciences, San Jose, Calif.) cell population was also performed in pooled SMG samples.

SMG salispheres = test: Salisphere formation and BrdU incorporation of unselected SMG cells from treated mice (FIG. 3D); assay type: in vivo, mouse
Method: After 3 days of culture, cells were stained with Brdu staining kit according to the manufacturer's instructions (Invitrogen, Carlsbdad, Calif.). The total number of salispheres and BrdU positive salispheres per 96 well were counted under light microscopy. For each group 20 wells were counted and experiments were repeated 3 times.
as §2

## C=CCc1ccc2c(c1)OCO2 [Alda-89, 5-(2-propenyl)-1,3-benzodioxole]
[1]
  catalytic activity of human ALDH3 recombinant enzyme: 304.4±7.1 % of control
ALDH1
  effect on ALDH1 isozyme catalytic activity: no effect
ALDH2
  effect on ALDH2 isozyme catalytic activity: no effect
ALDH5
  effect on ALDH5 isozyme catalytic activity: no effect
ALDH3
  enhancement of ALDH3 enzyme activity in esophagus cell homogenate vs vehicle control: 29%
c-kit+/CD90+ SMG cells; 7 days of treatment
  change in number of c-kit+/CD90+ SMG cells compared to vehicle control: more than doubling; also recorded: more than doubled
c-kit+/CD90+ SMG cells; 7 days of treatment by subcutaneous osmotic pump, vehicle 7.37±0.45%, p<0.05
  number of c-kit+/CD90+ cells in SMG: 17.8±0.95%
SMG salispheres; adult mice, summary statement
  change in BrdU+ salisphere number after treatment of adult mice: more than doubling
SMG salispheres; unselected SMG cells from mice treated 7 days, 3 days of culture, vehicle 66±1.42, p<0.05
  number of BrdU+ spheres: 91±0.83 spheres/5000 cells
SMG salispheres; unselected SMG cells from mice treated 7 days, 3 days of culture, vehicle 86±0.58, p<0.05
  total number of salispheres: 121±0.83 spheres/5000 cells
